Holding throughout (assay type): cell-based
Data set [1] deals with T1, Kv1.5 (Homo sapiens, UniProt P22460).
T1 construct: expressed in transfected cells; host or cells: HEK or LTK- cells
The data set can be described thus: Kv1.5 Patch Clamp EP (whole cell patch clamp; single point at 1 μM and IC50). As to conditions: for inhibition at 1 µM: single point at 1.0 μM, Kv1.5 stably over expressed in HEK or LTK- cells; for IC50: concentration response. How it is done: The external solution is standard Tyrodes solution. […] Inhibition was measured at the end of the 1 second pulses and expressed relative to controls. Initial Kv1.5 inhibition is estimated by single point determinations done at 1 μM.
Background: The patch-clamp technique gives a direct electrical read-out from membranes.

Data set [2] concerns the target T2, HERG (Homo sapiens, UniProt Q12809).
T2 construct: expressed in transfected cells; host or cells: HEK cells
The data set is described as follows: HERG Patch Clamp EP (whole cell patch clamp, tail currents; single point at 10 μM and IC50). As to conditions: for inhibition at 10 µM: human, HEK cells stably overexpressing HERG, single point at 10 μM, HERG in HEK cells, read-out: HERG % Inhib. @ 10 μM; for IC50: concentration response. The source says:
The external solution is standard Tyrodes solution.

Data set [3] concerns L-type calcium channels. The data set is described as follows: FLIPR L-type Calcium Channel Assay (calcium influx in HL-1 cells after KCl). As to conditions: read-out: L-type Ca2+ IC50. Summed up:
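HL-1 cardiomyocytes loaded with FLIPR calcium dye for 60 min at 37° C in Tyrode's pH 7.35 with 2.5 mM probenecid, then preincubated 15 min with compounds. Channels were opened by 20 mM KCl final, and fluorescence was recorded for 5 min. Influx expressed as % control gave concentration-response IC50.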

T2 sequence (Q12809 whole entry): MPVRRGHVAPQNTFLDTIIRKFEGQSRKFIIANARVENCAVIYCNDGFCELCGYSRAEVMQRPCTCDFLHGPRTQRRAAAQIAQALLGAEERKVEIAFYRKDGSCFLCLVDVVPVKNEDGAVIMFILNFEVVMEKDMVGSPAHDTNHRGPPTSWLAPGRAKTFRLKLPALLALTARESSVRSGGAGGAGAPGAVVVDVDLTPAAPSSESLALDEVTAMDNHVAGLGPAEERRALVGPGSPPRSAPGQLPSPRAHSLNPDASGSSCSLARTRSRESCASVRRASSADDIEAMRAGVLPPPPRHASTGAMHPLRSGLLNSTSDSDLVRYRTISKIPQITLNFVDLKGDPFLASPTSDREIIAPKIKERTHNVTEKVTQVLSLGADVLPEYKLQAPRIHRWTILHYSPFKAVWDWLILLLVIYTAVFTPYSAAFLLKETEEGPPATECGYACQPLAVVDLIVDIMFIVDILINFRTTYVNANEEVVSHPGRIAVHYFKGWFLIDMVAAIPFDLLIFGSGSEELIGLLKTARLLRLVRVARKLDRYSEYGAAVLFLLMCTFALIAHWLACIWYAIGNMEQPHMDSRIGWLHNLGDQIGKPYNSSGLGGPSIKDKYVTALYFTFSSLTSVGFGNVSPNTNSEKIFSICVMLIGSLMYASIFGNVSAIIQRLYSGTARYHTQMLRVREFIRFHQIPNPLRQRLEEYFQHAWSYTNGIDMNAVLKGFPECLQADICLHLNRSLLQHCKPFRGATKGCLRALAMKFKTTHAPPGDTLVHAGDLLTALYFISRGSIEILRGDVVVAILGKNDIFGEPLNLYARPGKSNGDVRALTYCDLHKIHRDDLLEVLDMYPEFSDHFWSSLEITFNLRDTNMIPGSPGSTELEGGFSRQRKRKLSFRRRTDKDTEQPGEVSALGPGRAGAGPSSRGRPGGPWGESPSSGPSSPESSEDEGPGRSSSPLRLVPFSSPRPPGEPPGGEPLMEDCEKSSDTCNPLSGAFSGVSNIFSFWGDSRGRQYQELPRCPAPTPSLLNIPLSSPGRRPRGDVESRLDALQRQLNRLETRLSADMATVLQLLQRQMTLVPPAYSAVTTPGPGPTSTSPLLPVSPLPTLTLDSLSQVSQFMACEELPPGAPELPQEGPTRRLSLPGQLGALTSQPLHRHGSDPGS
T1 sequence (P22460 whole entry): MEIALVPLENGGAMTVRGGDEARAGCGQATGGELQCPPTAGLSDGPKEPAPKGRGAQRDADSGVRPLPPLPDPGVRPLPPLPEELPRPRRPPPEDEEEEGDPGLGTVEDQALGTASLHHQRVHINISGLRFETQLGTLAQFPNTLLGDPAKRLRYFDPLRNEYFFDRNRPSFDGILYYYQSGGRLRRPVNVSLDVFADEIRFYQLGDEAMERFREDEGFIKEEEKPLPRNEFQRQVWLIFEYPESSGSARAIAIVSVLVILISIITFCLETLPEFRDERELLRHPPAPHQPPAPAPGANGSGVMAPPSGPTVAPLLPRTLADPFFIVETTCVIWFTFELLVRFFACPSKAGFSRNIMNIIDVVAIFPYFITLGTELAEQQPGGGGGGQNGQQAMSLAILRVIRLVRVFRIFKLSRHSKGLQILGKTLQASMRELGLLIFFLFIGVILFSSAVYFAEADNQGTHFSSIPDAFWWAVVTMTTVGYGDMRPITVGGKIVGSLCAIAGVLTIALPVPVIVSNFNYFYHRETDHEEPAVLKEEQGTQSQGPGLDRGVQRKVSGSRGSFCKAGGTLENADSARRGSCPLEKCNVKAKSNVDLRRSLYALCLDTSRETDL

As a reminder, the IC50 is the concentration at which inhibition is half-maximal. For the compound `COc1ccc(CCN2C(=O)C3(CCN(C(N)=NC#N)CC3)N(C)C2c2ccc(C3CC3)cc2)cc1` (stereo not drawn) [Compound 31, 8-(Cyano-1-carboxamidine)-2-(4-cyclopropylphenyl)-3-[2-(4-methoxyphenyl)-ethyl]-1-methyl-1,3,8-triaza-spiro[4.5]decan-4-one], the inhibition at 1 µM in data set [1] amounted to 75%. In addition, in data set [2], the inhibition at 10 µM was found to be 25%. Also, the IC50 in data set [3] stood at 26 µM.
Take `CN1C(c2ccc(C(C)(C)C)cc2)N(CCCc2ccccc2)C(=O)C12CCN(C(N)=O)CC2` (stereo not drawn) [Compound 50, 2-(4-tert-Butylphenyl)-1-methyl-4-oxo-3-(3-phenylpropyl)-1,3,8-triazaspiro-[4.5]decane-8-carboxylic acid amide]: the inhibition at 1 µM in data set [1] worked out at 72%. In data set [2], the inhibition at 10 µM stood at 37%. For the same compound, in data set [3], the IC50 was determined as 16 µM.
In data set [1], `COc1ccc(CCN2C(=O)C3(CCN(C(=O)OC(C)(C)C)CC3)N(C)C2c2ccc(CC(C)C)cc2)cc1` (stereo not drawn) [Compound 85, tert-butyl 2-(4-isobutylphenyl)-3-[2-(4-methoxyphenyl)ethyl]-1-methyl-4-oxo-1,3,8-triazaspiro[4.5]decane-8-carboxylate] gave an inhibition at 1 µM of 85%. The inhibition at 10 µM in data set [2] was 3%. Moreover, in data set [3], the IC50 was 6.7 µM.
Consider `COc1ccc(CCN2C(=O)C3(CCN(C(N)=O)CC3)N(C)[C@@H]2c2ccc(C3CC3)cc2)cc1` [Compound 98, (S)-2-(4-cyclopropylphenyl)-3-[2-(4-methoxyphenyl)ethyl]-1-methyl-4-oxo-1,3,8-triaza-spiro[4.5]decane-8-carboxylic acid amide], for which the values for the IC50 in data set [1], in data set [2] and in data set [3] were 320 nM, 13 µM and 13 µM, respectively. This compound also showed an inhibition at 1 µM in data set [1] of 90%. In addition, in data set [2], the inhibition at 10 µM is 13%.
For `COc1ccc(CCN2C(=O)C3(CCN(CC(N)=O)CC3)N(C)C2c2ccc(C3CC3)cc2)cc1` (stereo not drawn) [Compound 55, 2-{2-(4-Cyclopropylphenyl)-3-[2-(4-methoxyphenyl)ethyl]-1-methyl-4-oxo-1,3,8-triaza-spiro[4.5]dec-8-yl}acetamide], in data set [1], the inhibition at 1 µM was determined as 64%. In addition, the inhibition at 10 µM in data set [2] is 71%. In addition, the IC50 in data set [3] worked out at 8 µM.
In data set [1], `COc1ccc(CCN2C(=O)C3(CCN(C(C)=O)CC3)N(C)C2c2ccc(C3CC3)cc2)cc1` (stereo not drawn) [Compound 5, 8-Acetyl-2-(4-cyclopropylphenyl)-3-[2-(4-methoxyphenyl)ethyl]-1-methyl-1,3,8-triaza-spiro[4.5]decan-4-one] yielded an IC50 of 514 nM and an inhibition at 1 µM of 84%. Also, in data set [2], the IC50 was 31 µM and the inhibition at 10 µM was found to be 8%. The IC50 in data set [3] is 36 µM.
Consider `COc1ccc(CCN2C(=O)C3(CCN(C(N)=O)CC3)N(C)[C@H]2c2ccc(C3CC3)cc2)cc1` [Compound 99, (R)-2-(4-cyclopropylphenyl)-3-[2-(4-methoxyphenyl)ethyl]-1-methyl-4-oxo-1,3,8-triaza-spiro[4.5]decane-8-carboxylic acid amide], for which, in data set [1], the IC50 came to 397 nM and the inhibition at 1 µM was 80%. Further, in data set [2], the IC50 stood at 16 µM and the inhibition at 10 µM was found to be 24%. Further, the IC50 in data set [3] was determined as 24 µM.
Compound `CONC(=O)N1CCC2(CC1)C(=O)N(CCc1ccc(OC)cc1)C(c1ccc(C3CC3)cc1)N2C` (stereo not drawn) [Compound 25, 2-(4-cyclopropylphenyl)-N-methoxy-3-[2-(4-methoxyphenyl)ethyl]-1-methyl-4-oxo-1,3,8-triazaspiro[4.5]decane-8-carboxamide] had an inhibition at 1 µM in data set [1] of 82%. In addition, the inhibition at 10 µM in data set [2] was determined as 23%. Also, the IC50 in data set [3] is 17 µM.
With `COc1ccc(CCN2C(=O)C3(CCN(C(=O)NO)CC3)N(C)C2c2ccc(C3CC3)cc2)cc1` (stereo not drawn) [Compound 26, 2-(4-Cyclopropylphenyl)-N-hydroxy-3-[2-(4-methoxyphenyl)ethyl]-1-methyl-4-oxo-1,3,8-triazaspiro[4.5]decane-8-carboxamide], in data set [1], the inhibition at 1 µM worked out at 65%. Besides, the inhibition at 10 µM in data set [2] turned out to be 5%. The IC50 in data set [3] turned out to be 24 µM.
For `COc1ccc(CCN2C(=O)C3(CCN(C(=O)C4CCCC4)CC3)N(C)C2c2ccc(OC(F)F)cc2)cc1` (stereo not drawn) [Compound 82, 8-(cyclopentylcarbonyl)-2-[4-(difluoromethoxy)phenyl]-3-[2-(4-methoxyphenyl)ethyl]-1-methyl-1,3,8-triazaspiro[4.5]decan-4-one] the same measures were 88%, 90% and 7 µM.
